Measured values: patent US20260151375A1, “CDK2 INHIBITORS AND METHODS OF USING THE SAME” (Cedilla Therapeutics, Inc., priority 2022, published 2026)

Assays:
[1] = target: T1, CDK2/Cyclin E1 (Homo sapiens, UniProt P24941); test: Caliper Assay (LabChip EZ Reader mobility shift assay), inhibition of CDK2/Cyclin E1 activity; format: biochemical; details: 2.5 nM CDK2/Cyclin E1(14-475), 100 μM ATP, 30 min preincubation; read-out: Caliper Assay (CDK2/CCNE1): IC50
T1 construct: purchased 14-475
Protocol: Inhibition of CDK2/Cyclin E1 activity in the presence of compounds of the present disclosure was evaluated using a Caliper LabChip® EZ Reader mobility shift assay. In the assay, activated CDK2/Cyclin E1 catalyzes the phosphorylation of a fluorescently tagged peptide 5-FAM-QSPKKG-CONH2 (PerkinElmer, FL Peptide 18) which induces a difference in capillary electrophoresis mobility. The peptide substrate and product were measured, and the conversion ratio was used to determine the inhibition (as % activity and IC50 values) of CDK2/Cyclin E1. Reactions contained 50 mM HEPES pH 7.5, 10 mM MgCl2, 1 mM EDTA, 2 mM DTT, 0.01% Brij35, 0.5 mg/mL BSA, 0.1% DMSO, 2.5 nM CDK2/Cyclin E1(14-475), 100 μM ATP, and 1.5 μM fluorescent peptide substrate.
Dose titrations of inhibitors in 100% DMSO were combined with 3.25 nM CDK2/Cyclin E1(14-475) and 130 μM of ATP in reaction buffer. The mixtures were incubated for 30 minutes before the addition of fluorescent peptide substrate to initiate the kinase reaction. The final conditions were 2.5 nM CDK2/Cyclin E1(14-475), 100 μM ATP, and 1.5 μM fluorescent peptide. The reactions were stopped after 100 minutes with the addition of EDTA (6 mM final EDTA concentration). The stopped reactions were analyzed on a Caliper LabChip© EZ Reader II. The conversion ratios were normalized to yield % activity, plotted against compound concentration, and fit to a four-parameter equation to determine the IC50 for each compound.

[2] = system: Kuramochi cells; test: IncuCyte Kuramochi Assay (cell proliferation); format: cell-based; details: 72 h, Kuramochi cells labeled with mApple-H2B, cell count, read-out: IncuCyte - Kuramochi RB-WT: IC50
Protocol: IncuCyte® assay was used to measure the effect of disclosed compounds on cell proliferation. Fluorescent microscopy images of cells were taken immediately after compound treatment and 72 hours later. Image analysis software was used to obtain cell counts as a function of compound concentration. Kuramochi cells labeled with mApple-H2B were seeded on 384-well assay-ready plates. Plates were placed in an IncuCyte® (Sartorius) and scanned at 0 and 72 hours. IncuCyte® software was used to count the number of fluorescent nuclei in each well. The fold change in cell count from 0 to 72 hours in wells treated with increasing compounds concentrations (10 pts, ½ log dilution, 20 μM top concentration) was normalized to DMSO control wells. The normalized cell counts were fit with dose response curves and a […] was calculated.

SMILES	IC50 [1] [µM]	IC50 [2] [µM]
CC1(C)C[C@@H]1C(=O)N1CC2(CN(C(=O)c3cnn(Cc4ccccc4)c3)CC2c2nnc(Cc3ccncc3)o2)C1 (some centres unmarked) [I-23]	0.1 to 1	> 10
CC1(C)C[C@@H]1C(=O)N1CC2(CN(C(=O)c3cncs3)CC2c2nnc(Cc3cc[nH]n3)o2)C1 (stereo partly drawn) [I-29, (8-(5-((1H-pyrazol-3-yl)methyl)-1,3,4-oxadiazol-2-yl)-2-((S)-2,2-dimethylcyclopropane-1-carbonyl)-2,6-diazaspiro[3.4]octan-6-yl)(thiazol-5-yl)methanone]	> 10	> 10
CC1(C)C[C@@H]1C(=O)N1CC2(CN(C(=O)c3cncs3)CC2c2nnc(Cc3ccc(C4CCOCC4)c(Cl)c3)o2)C1 (some centres unmarked) [I-31]	0.1 to 1	> 10
CC1(C)C[C@@H]1C(=O)N1CC2(C1)CN(c1ncnc3ncsc13)CC2c1nnc(C(F)(F)c2ccc(Cl)cc2)o1 (stereo partly drawn) [I-37, (8-(5-((4-chlorophenyl)difluoromethyl)-1,3,4-oxadiazol-2-yl)-6-(thiazolo[4,5-d]pyrimidin-7-yl)-2,6-diazaspiro[3.4]octan-2-yl)((S)-2,2-dimethylcyclopropyl)methanone]	1 to 10	> 10
CC(C)(c1ccc(Cl)c(Cl)c1)c1nnc(C2CN(C(=O)c3cncs3)CC23CN(C(=O)[C@H]2CC2(C)C)C3)o1 (some centres unmarked) [I-39]	0.1 to 1	> 10
CC1(C)C[C@@H]1C(=O)N1CC2(CN(C(=O)c3cnco3)CC2c2nnc(C(F)(F)c3ccc(Cl)c(Cl)c3)o2)C1 (some centres unmarked) [I-44]	1 to 10	> 10
CC1(C)C[C@@H]1C(=O)N1CC2(CN(C(=O)c3ncccn3)CC2c2nnc(C(F)(F)c3ccc(Cl)c(Cl)c3)o2)C1 (some centres unmarked) [I-46]	> 10	> 10
O=C(c1cncs1)N1CC(c2nnc(Cc3ccc(Cl)c(Cl)c3)o2)C2(C1)CN(c1ncccn1)C2 (centres unmarked) [I-49]	> 10	> 10
CC1(C)C[C@@H]1C(=O)N1CC2(CN(C(=O)c3cncs3)CC2c2nnc(Cc3nc(C4CCOCC4)ccc3F)o2)C1 (stereo partly drawn) [I-50, (2-((S)-2,2-dimethylcyclopropane-1-carbonyl)-8-(5-((3-fluoro-6-(tetrahydro-2H-pyran-4-yl)pyridin-2-yl)methyl)-1,3,4-oxadiazol-2-yl)-2,6-diazaspiro[3.4]octan-6-yl)(thiazol-5-yl)methanone]	1 to 10	> 10
CC1(C)C[C@@H]1C(=O)N1CC2(CN(C(=O)c3cncs3)CC2c2cn(Cc3ccc(Cl)c(Cl)c3)nn2)C1 (stereo partly drawn) [I-51, (8-(1-(3,4-dichlorobenzyl)-1H-1,2,3-triazol-4-yl)-2-((S)-2,2-dimethylcyclopropane-1-carbonyl)-2,6-diazaspiro[3.4]octan-6-yl)(thiazol-5-yl)methanone]	> 10	> 10
CC1(C)C[C@@H]1C(=O)N1CC2(CN(C(=O)c3cn[nH]c3)CC2c2nnc(C(F)(F)c3ccc(Cl)c(Cl)c3)o2)C1 (some centres unmarked) [I-52]	0.1 to 1	> 10
CC1(C)C[C@@H]1C(=O)N1CC2(CN(C(=O)c3cccnn3)CC2c2nnc(C(F)(F)c3ccc(Cl)c(Cl)c3)o2)C1 (some centres unmarked) [I-53]	> 10	> 10
CC1(C)C[C@@H]1C(=O)N1CC2(CN(C(=O)c3cncnc3)CC2c2nnc(C(F)(F)c3ccc(Cl)c(Cl)c3)o2)C1 (some centres unmarked) [I-56]	1 to 10	> 10
CC(C)(C(=O)N1CC2(CN(C(=O)c3cncs3)CC2c2nnc(C(F)(F)c3ccc(Cl)c(Cl)c3)o2)C1)C(F)(F)F (centres unmarked) [I-57]	0.1 to 1	> 10
O=C(c1cncs1)N1CC(c2nnc(C(F)(F)c3ccc(Cl)c(Cl)c3)o2)C2(C1)CN(c1ncccn1)C2 (centres unmarked) [I-59, (8-(5-((3,4-dichlorophenyl)difluoromethyl)-1,3,4-oxadiazol-2-yl)-2-(pyrimidin-2-yl)-2,6-diazaspiro[3.4]octan-6-yl)(thiazol-5-yl)methanone]	> 10	> 10
CC(c1nc(C2CN(C(=O)c3cncs3)CC23CN(C(=O)[C@H]2CC2(C)C)C3)no1)n1cc(C2CCCC2)cn1 (some centres unmarked) [I-64]	0.01 to 0.1	> 10

Continued, in another order:

IC50 [1] [µM]	SMILES	IC50 [2] [µM]
0.1 to 1	Cc1cc(C)n([C@@H](C)c2nc(C3CN(C(=O)c4cnn(Cc5ccccc5)c4)CC34CN(C(=O)[C@H]3CC3(C)C)C4)no2)n1 (stereo partly drawn) [I-21, (1-benzyl-1H-pyrazol-4-yl)(8-(5-(1-(3,5-dimethyl-1H-pyrazol-1-yl)ethyl)-1,2,4-oxadiazol-3-yl)-2-((S)-2,2-dimethylcyclopropane-1-carbonyl)-2,6-diazaspiro[3.4]octan-6-yl)methanone]	> 10
1 to 10	Cc1ccc(Cc2nnc(C3CN(C(=O)c4cnn(Cc5ccccc5)c4)CC34CN(C(=O)[C@H]3CC3(C)C)C4)o2)nn1 (some centres unmarked) [I-22]	> 10
0.1 to 1	CC1(C)C[C@@H]1C(=O)N1CC2(CN(C(=O)c3cnn(Cc4ccccc4)c3)CC2c2nnc(Cc3ccc(Cl)c(Cl)c3)o2)C1 (some centres unmarked) [I-24]	5 to 10
0.1 to 1	CC1(C)C[C@@H]1C(=O)N1CC2(CN(C(=O)c3cncs3)CC2c2nnc(Cc3cccc(C4CCOCC4)n3)o2)C1 (some centres unmarked) [I-25]	> 10
1 to 10	CC1(C)C[C@@H]1C(=O)N1CC2(CN(C(=O)c3cncs3)CC2c2nnc(Cc3cc4ccccc4[nH]3)o2)C1 (some centres unmarked) [I-26]	> 10
0.1 to 1	CC1(C)C[C@@H]1C(=O)N1CC2(CN(C(=O)c3cncs3)CC2c2nnc(Cc3ccc4c(c3)OCCO4)o2)C1 (some centres unmarked) [I-27]	> 10
0.1 to 1	CC1(C)C[C@@H]1C(=O)N1CC2(CN(C(=O)c3cncs3)CC2c2nnc(CCc3ccc(Cl)c(Cl)c3)o2)C1 (some centres unmarked) [I-28]	> 10
1 to 10	CC1(C)C[C@@H]1C(=O)N1CC2(CN(C(=O)c3cncs3)CC2c2nnc(Cc3ccc(Cl)cc3)o2)C1 (some centres unmarked) [I-30]	> 10
1 to 10	CC1(C)C[C@@H]1C(=O)N1CC2(CN(C(=O)c3cncs3)CC2c2nnc(Cc3cccc4c3OCCO4)o2)C1 (some centres unmarked) [I-33]	> 10
1 to 10	COc1ccccc1C(F)(F)c1nnc(C2CN(C(=O)c3cncs3)CC23CN(C(=O)[C@H]2CC2(C)C)C3)o1 (some centres unmarked) [I-34]	> 10
0.1 to 1	CC1(C)C[C@@H]1C(=O)N1CC2(CN(C(=O)c3cncs3)CC2c2nnc(C(F)(F)c3ccc(C4CC4)cc3)o2)C1 (some centres unmarked) [I-40]	> 10
> 10	O=C(c1cncs1)N1CC(c2nnc(Cc3ccc(Cl)c(Cl)c3)o2)C2(C1)CN(c1nc3ccccc3o1)C2 (centres unmarked) [I-41]	> 10
1 to 10	CCOc1cc(C)nn1C(C)c1nc(C2CN(C(=O)c3cncs3)CC23CN(C(=O)[C@H]2CC2(C)C)C3)no1 (stereo partly drawn) [I-42, (2-((S)-2,2-dimethylcyclopropane-1-carbonyl)-8-(5-(1-(5-ethoxy-3-methyl-1H-pyrazol-1-yl)ethyl)-1,2,4-oxadiazol-3-yl)-2,6-diazaspiro[3.4]octan-6-yl)(thiazol-5-yl)methanone]	> 10
1 to 10	CC1(C)C[C@@H]1C(=O)N1CC2(CN(C(=O)c3ccnnc3)CC2c2nnc(C(F)(F)c3ccc(Cl)c(Cl)c3)o2)C1 (stereo partly drawn) [I-43, (8-(5-((3,4-dichlorophenyl)difluoromethyl)-1,3,4-oxadiazol-2-yl)-2-((S)-2,2-dimethylcyclopropane-1-carbonyl)-2,6-diazaspiro[3.4]octan-6-yl)(pyridazin-4-yl)methanone]	> 10
> 10	O=C(c1cncs1)N1CC(c2nnc(Cc3ccc(Cl)c(Cl)c3)o2)C2(C1)CN(c1ncc(C(F)(F)F)cn1)C2 (centres unmarked) [I-47]	> 10
> 10	CC1(C)C[C@@H]1C(=O)N1CC2(CN(C(=O)c3cnc(C(F)(F)F)s3)CC2c2nnc(C(F)(F)c3ccc(Cl)c(Cl)c3)o2)C1 (some centres unmarked) [I-54]	> 10
0.1 to 1	COc1ccc(C2CCOCC2)nc1Cc1nnc(C2CN(C(=O)c3cncs3)CC23CN(C(=O)[C@H]2CC2(C)C)C3)o1 (some centres unmarked) [I-55]	> 10
> 10	O=C(c1cncs1)N1CC(c2nnc(Cc3ccc(Cl)c(Cl)c3)o2)C2(C1)CN(c1cccc[n+]1[O-])C2 (centres unmarked) [I-60]	> 10
0.01 to 0.1	CC1(C)C[C@@H]1C(=O)N1CC2(CN(C(=O)c3cncs3)CC2c2nnc(C3(c4ccc(Cl)c(Cl)c4)CC(O)C3)o2)C1 (some centres unmarked) [I-61]	> 10
0.01 to 0.1	CC(C)(c1coc(C2CCCC2)n1)c1nc(C2CN(C(=O)c3cncs3)CC23CN(C(=O)[C@H]2CC2(C)C)C3)no1 (some centres unmarked) [I-62]	5 to 10
1 to 10	Cc1cc(O)nn1C(C)c1nc(C2CN(C(=O)c3cncs3)CC23CN(C(=O)[C@H]2CC2(C)C)C3)no1 (some centres unmarked) [I-63]	> 10
